# How the values were obtained:
# [1] = test system: MDA-MB-231 human breast cancer cell line; test: MTT assay of MDA-MB-231 cells; type: cell-based; settings: media containing 5% fetal bovine serum
# Method: (§1) MDA-MB-231 and MCF7 cells were plated at a density of 8×10^3 cells/well and 10^4 cells/well in 96-well culture plates, respectively. The compounds were fed in serum free media containing 5% and 1% fetal bovine serum for MDA-MB-231 and MCF7 cells, respectively.
# [2] = test system: MCF7 human breast cancer cell line; test: MTT assay of MCF7 cells; type: cell-based; settings: media containing 1% fetal bovine serum
# Method: as §1
structure (smiles),measurement,setting,value
"CC(C)=CCC/C(C)=C/CC/C(C)=C/CC[C@]1(C)CCc2cc(O)c(C)c(C)c2O1 [Compound 1, γ-tocotrienol, reference compound]",IC50,[1],9.4 µM
same,IC50,[2],7.1 µM

# From US9115145B2, “Tocotrienol derivatives and associated methods” (FIRST TECH INTERNATIONAL LIMITED, priority 2011, dated 2015)
